This is an account of results in patent US20200085805A1, “METHOD FOR TREATING CANCER RELATED TO ACTIVATION OF RAS GENE IN SUBJECT” (priority 2018, published 2020).

Assay [1] has as its system RAS mRNA. Briefly: Reduction of RAS mRNA in Drosophila pupae, measured by RT-PCR (2-ΔΔCt method). The settings on record: 24 mM in culture medium, 5 days culture, 40 pupae, GAPDH internal reference, versus normal medium control. In kind it is in vivo. On the procedure:
The molecular weight of 1-methyl-4-phenyl-1,2,3,6-tetrahydropyridine is 173.25 g/mol. 1.7325 g of the compound was accurately weighed, dissolved in 10 mL of DMSO solution to prepare a 1 M mother liquid for later use.
The preparation of a normal culture medium: 0.53 g of agar and 1.6 g of yeast extraction powder was added to 50 mL H2O. The mixture obtained was heated until boiling. Then, 0.43 g of NaKT, 0.033 g of anhydrous CaCl2, 1.58 g of sucrose, 3.17 g of glucose, and 3.88 g of corn flour (pre-mixed thoroughly with cold water to prevent agglomeration) were added to the mixture, and was brought to boil before stopping heating. The final mixture was transferred in aliquots into a number of culture tubes with a diameter of 25 mm and a volume of 5-8 mL. The filled culture tubes were sterilized at high temperature (30 min, 116° C.), followed by cooling to around 50° C. […]
In the present invention, the content of RAS mRNA was measured by RT-PCR. […] After the amplification, the relative expression level of K-RAS in Drosophila was determined by the 2-ΔΔCt method.
After culturing in the normal culture medium (as a control group) and a culture medium doped by 24 mM of 1-methyl-4-phenyl-1,2,3,6-tetrahydropyridine (as a test group) for 5 days, 40 pupae were taken from each of the culture tubes used for the test. […] The relative amount of RAS mRNA was determined by the above method.

In assay [2] the test system is L185+L186 Drosophila tumor model. Briefly: Inhibition of tumors in GFP-scrib-/- Drosophila tumor model (GFP fluorescence, live imaging). The class given is in vivo, Drosophila melanogaster. The following applies: oral administration of 24 mM in doped culture medium, 5 days, 80 pupae; without compound 2.37×10^9 μW/cm^2. From the text:
A green fluorescent protein (GFP)-tagged FLP/FRT recombinant system and scrib/TM6B balanced Drosophila melanogaster strain were used for hybridization to obtain a GFP-scrib−/− chimeric tumorigenesis model (L185+L186), wherein the GFP expression is in linkage with tumorigenesis. The preparation of a normal culture medium and a doped culture medium was the same as in embodiment 1. After culturing in the normal culture medium and the doped culture medium for 5 days, 80 pupae were taken from the culture tubes used for the test and washed twice with PBS (phosphate buffered saline solution). The pupae were neatly arranged on slides and were then transferred to an ice box to freeze for 2 hours. The pupae were observed under an IVIS Lumina X5 live imaging system (excitation light wavelength 450-490 nm, the same hereafter), images were taken, and the expression of the green fluorescent protein was evaluated.

The structures appear in SMILES notation.

Regarding `CN1CC=C(c2ccccc2)CC1` [1-methyl-4-phenyl-1,2,3,6-tetrahydropyridine], the “reduction of RAS mRNA level” value in assay [1] was 3.5 folds. The “absolute value of the fluorescence of the Drosophila tumor model” value in assay [2] is 3.5×10^8 μW/cm^2.
